pKi: −log10 of the molar value.

From patent US5656603A (Loyola University of Chicago, priority 1995, dated 1997) come the findings set out here.

The target of the test is T1, purified rat lung membrane-bound aminopeptidase P (Rattus norvegicus, UniProt Q99MA2).
T1 construct: from tissue; host or cells: rat lung
T1 sequence (Q99MA2 23-674): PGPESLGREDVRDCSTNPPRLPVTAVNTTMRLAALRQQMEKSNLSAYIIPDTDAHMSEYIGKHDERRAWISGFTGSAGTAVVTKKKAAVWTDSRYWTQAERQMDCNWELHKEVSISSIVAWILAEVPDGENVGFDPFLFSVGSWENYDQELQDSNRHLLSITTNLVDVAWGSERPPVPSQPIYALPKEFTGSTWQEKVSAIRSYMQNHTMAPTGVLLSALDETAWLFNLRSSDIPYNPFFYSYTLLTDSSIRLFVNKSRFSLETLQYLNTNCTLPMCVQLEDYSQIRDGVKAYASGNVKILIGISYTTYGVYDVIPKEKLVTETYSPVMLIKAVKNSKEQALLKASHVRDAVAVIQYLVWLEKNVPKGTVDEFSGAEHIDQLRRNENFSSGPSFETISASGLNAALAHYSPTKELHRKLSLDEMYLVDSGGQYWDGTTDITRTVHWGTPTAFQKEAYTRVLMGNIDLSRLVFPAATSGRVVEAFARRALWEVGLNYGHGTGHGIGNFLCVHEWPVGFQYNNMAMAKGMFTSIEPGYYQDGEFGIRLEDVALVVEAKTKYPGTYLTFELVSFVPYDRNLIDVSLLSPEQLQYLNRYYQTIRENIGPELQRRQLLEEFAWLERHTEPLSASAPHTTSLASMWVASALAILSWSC
The test can be described thus: Aminopeptidase P inhibition, release of arginine from Arg-Pro-Pro (fluorescent assay). Type of test: biochemical. The method, then:
The IC50 of the compound of the present invention in relation to aminopeptidase P was also determined. […] The specificity of the compound of the present invention for other aminopeptidases was similarly determined as described in the Experimental Procedures herein.
Enzymes--Membrane-bound aminopeptidase P was purified to homogeneity from bovine lung (14) and from rat lung. Partially purified membrane-bound aminopeptidase P from human lung was obtained by treatment of lung microsomes with phosphatidylinositol-specific phospholipase C (B. thuringiensis) (ICN, Costa Mesa, Calif.) followed by centrifugation as described previously (14). Membrane dipeptidase was purified from rat lung microsomes (manuscript in preparation). Recombinant E. coli aminopeptidase P (22) and purified lamb kidney prolyl oligopeptidase (23) were generally supplied by Dr. Tadashi Yoshimoto (Nagasaki University). Purified porcine kidney prolidase and purified porcine kidney aminopeptidase M was obtained from Sigma (St. Louis, Mo.).
Enzyme Kinetics--Aminopeptidase P activity was determined by measuring the release of arginine from Arg-Pro-Pro by a fluorescent assay described previously (14). […] Each mixture was run in duplicate. Aliquots were removed from each incubation mixture at various times and assayed for the amount of arginine present to determine the reaction velocity. In general, reaction velocities were calculated from data representing less than 20% cleavage of substrate. Ki and Ki ' (=αKi) were determined from plots of 1/v versus concentration of inhibitor "i" (26) and S/v versus concentration of inhibitor "i" (27), respectively. These parameters were also determined from the slope replot and 1/v-intercept replot, respectively, of the 1/v versus 1/S plot (28). […] The values from the two treatments of the data were averaged for each experiment. Experiments for each enzyme preparation were performed twice and the results averaged.

`C[C@H](NC(=O)[C@@H]1CCCN1C(=O)[C@@H]1CCCN1C(=O)[C@@H](O)[C@H](N)Cc1ccccc1)C(N)=O` [apstatin, N-[(2S, 3R)-3-amino-2-hydroxy-4-phenylbutanoyl]-L-prolyl-L-prolyl-Lalaninamide]: the “dependence of inhibition on Mn+2” value is given as “not dependent on the presence of Mn^+2”. The reversibility of inhibition entry (100-fold dilution of a preincubated enzyme-apstatin mixture) was “indicating reversibility”. Further, the “effect of preincubation on degree of inhibition (time-dependent or slow-tight binding inhibition)” value (preincubation of rat aminopeptidase P for up to 2 hr. at 4° C. before addition of substrate) is given as “did not increase the degree of inhibition”. Also, where the note is “rat lung aminopeptidase P”, the type of inhibition entry is “linear mixed-type”. Besides, the “α (αKi = equilibrium constant for enzyme-inhibitor binding at infinite substrate concentration)” value (rat lung, purified membrane-bound form) is 5.1. This molecule showed a pKi (rat lung, purified membrane-bound form, substrate Arg-Pro-Pro, 0.1 M Hepes pH 8.0, 39° C.) of 5.59.
